Results: article PMC2233662 (The Journal of General Physiology, 2001)

Biological target: r-InsP3R-3 (recombinant rat type 3 InsP3R) (Rattus norvegicus, UniProt Q63269)
Assay: single-channel patch clamp of outer nuclear membrane of isolated oocyte nuclei
Assay type: cell-based

Chain of r-InsP3R-3 (recombinant rat type 3 InsP3R) (Q63269 whole entry): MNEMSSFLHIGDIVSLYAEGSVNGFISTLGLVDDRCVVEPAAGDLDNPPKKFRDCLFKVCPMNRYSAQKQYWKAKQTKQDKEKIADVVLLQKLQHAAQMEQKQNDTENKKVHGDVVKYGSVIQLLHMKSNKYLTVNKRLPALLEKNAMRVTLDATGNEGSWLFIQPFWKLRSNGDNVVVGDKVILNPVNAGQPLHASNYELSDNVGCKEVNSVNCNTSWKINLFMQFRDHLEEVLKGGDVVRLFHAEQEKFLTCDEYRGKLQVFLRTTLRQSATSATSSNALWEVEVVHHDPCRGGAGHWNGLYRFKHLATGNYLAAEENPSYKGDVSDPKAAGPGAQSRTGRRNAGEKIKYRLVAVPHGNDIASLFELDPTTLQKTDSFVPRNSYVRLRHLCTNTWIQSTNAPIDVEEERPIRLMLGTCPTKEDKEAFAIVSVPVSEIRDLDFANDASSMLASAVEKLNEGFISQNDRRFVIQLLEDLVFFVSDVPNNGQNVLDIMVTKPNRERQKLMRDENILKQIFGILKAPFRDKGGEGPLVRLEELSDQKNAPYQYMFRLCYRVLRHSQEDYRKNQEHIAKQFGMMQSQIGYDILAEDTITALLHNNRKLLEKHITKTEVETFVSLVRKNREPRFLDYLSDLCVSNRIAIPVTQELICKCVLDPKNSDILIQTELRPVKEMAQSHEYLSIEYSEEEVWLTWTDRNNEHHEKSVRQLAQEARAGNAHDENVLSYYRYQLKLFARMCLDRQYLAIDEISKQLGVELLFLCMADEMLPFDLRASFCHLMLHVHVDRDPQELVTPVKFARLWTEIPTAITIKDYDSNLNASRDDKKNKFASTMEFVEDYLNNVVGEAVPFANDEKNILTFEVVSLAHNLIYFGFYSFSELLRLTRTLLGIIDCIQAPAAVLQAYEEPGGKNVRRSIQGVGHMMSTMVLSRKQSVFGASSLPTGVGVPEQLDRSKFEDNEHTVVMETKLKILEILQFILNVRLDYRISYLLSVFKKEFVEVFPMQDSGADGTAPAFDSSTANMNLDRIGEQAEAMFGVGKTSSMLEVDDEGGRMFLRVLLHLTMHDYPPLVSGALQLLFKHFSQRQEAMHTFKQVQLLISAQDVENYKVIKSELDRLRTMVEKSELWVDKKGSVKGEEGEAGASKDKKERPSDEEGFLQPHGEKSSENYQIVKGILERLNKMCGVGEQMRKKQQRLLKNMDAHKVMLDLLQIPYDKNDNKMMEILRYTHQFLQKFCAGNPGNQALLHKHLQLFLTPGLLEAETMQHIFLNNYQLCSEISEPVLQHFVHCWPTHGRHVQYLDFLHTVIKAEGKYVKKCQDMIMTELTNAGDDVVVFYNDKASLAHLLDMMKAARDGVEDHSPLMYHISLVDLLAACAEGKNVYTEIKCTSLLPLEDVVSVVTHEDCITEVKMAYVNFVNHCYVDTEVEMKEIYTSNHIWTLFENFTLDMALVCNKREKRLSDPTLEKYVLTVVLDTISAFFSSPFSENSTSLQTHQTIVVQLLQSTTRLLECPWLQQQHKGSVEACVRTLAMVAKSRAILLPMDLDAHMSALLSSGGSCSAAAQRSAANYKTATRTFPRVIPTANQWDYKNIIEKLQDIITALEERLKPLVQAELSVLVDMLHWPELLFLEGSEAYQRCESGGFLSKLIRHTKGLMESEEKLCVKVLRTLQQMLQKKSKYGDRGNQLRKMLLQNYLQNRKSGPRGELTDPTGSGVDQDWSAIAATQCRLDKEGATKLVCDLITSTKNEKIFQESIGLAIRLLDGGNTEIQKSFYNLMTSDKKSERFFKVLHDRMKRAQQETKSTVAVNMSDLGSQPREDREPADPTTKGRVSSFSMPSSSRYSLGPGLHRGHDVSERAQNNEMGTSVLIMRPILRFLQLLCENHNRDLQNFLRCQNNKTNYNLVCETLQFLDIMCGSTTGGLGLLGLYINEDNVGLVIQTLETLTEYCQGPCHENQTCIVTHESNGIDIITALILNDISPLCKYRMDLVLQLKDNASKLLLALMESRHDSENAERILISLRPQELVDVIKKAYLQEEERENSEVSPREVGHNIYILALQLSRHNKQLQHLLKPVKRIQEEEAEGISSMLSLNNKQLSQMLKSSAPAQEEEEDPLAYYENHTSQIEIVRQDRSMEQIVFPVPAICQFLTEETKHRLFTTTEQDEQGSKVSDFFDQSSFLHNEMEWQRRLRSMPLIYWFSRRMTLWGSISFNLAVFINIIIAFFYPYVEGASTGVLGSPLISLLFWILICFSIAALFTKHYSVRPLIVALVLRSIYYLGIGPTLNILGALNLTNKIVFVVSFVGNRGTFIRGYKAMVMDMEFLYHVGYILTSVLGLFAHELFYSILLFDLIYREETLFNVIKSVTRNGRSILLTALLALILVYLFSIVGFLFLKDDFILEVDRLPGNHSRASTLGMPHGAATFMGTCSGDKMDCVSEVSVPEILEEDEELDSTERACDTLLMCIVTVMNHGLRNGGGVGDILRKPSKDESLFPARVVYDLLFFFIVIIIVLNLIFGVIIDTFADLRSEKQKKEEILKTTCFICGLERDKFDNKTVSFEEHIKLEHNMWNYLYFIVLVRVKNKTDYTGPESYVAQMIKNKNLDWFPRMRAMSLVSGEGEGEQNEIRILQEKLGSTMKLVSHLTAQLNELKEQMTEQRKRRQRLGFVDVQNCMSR

With O=P(O)(O)O[C@@H]1[C@H](O)[C@H](O)[C@@H](OP(=O)(O)O)[C@H](OP(=O)(O)O)[C@H]1O [InsP3] as the compound, how does the EC50 read?
The EC50 was 55 ± 6 nM.
